What all share (format): cell-based
Assay [1] relates to nitric oxide formation by LPS-stimulated RAW 264.7 murine macrophage cells. The assay is described as follows: Nitric oxide inhibitory assay (Griess nitrite assay). Conditions: Mus musculus, RAW264.7; LPS-stimulated RAW 264.7, 24 h. Here is the method: RAW 264.7 murine macrophage cells were stimulated by LPS (Lipopolysaccharide) to produce inflammatory mediators as NO, the produced nitrite (NO2-) was measured using the Griess reagent, RAW 264.7 murine macrophage-like cells were grown in phenol red-free RPMI-1640 containing 10% FBS. Cells were incubated for 24 h with LPS ([…]) in the presence of different concentrations of the plant extract. Then 50 µl of supernatant from each well of cell culture was transferred into 96-well microplates and equal volume of Griess reagent (1% sulfanilamide, 0.1% N-(1-naphthyl)-ethylenediamine hydrochloride, 2.5% H3PO4) was then added to the supernatant at room temperature. The absorbance at 550 nm was determined in UV-Vis microplate reader after 10 min. The concentrations of nitrite were derived from regression analysis using serial dilutions of sodium nitrite as a standard. Percentage of inhibition was calculated based on the ability of the extract to inhibit nitric oxide formation by cells compared with the control (cells in the media without the extract containing triggering agents and DMSO), which was considered as 0% inhibition.

For assay [2], the system named is CACO2 cells (intestinal carcinoma cell line). The assay is described as follows: MTT viability assay, CACO2. Conditions: Homo sapiens, Caco-2, 24 h. Here is the method: The Cytotoxic activity was tested using the viability assay following the method reported by Mosmann, T., 1983 [21, 22]. HepG2 cells (liver carcinoma cell line), MCF-7cells (breast carcinoma cell line) and CACO2 cells (intestinal carcinoma cell line) (American Type Culture Collection ATCC, Rockville, MD) were applied through the tissue Culture Unit, the Egyptian Organization for Biological Products and Vaccines, Vacsera, Egypt. In brief, the tumor cell lines were suspended in medium at concentration 5 × 10^4 cell/ well in Corning® 96-well tissue culture plates and then incubated for 24 h. The alcoholic extract of F. cretica was then added into 96-well plates (three replicates) to achieve twelve concentrations. Six vehicle controls with media or 0.5% DMSO were run for each 96 well plate as a control. After incubating for 24 h, the number of viable cells was determined by the MTT test. Briefly, the media was removed from the 96 well plates and replaced with 100 µl of fresh culture RPMI 1640 medium without phenol red then 10 µl of the 12 mM MTT stock solution (5 mg of MTT in 1 ml of PBS) to each well including the untreated controls. […] Then, the optical density (OD) was measured at 590 nm with the microplate reader (SunRise, TECAN, Inc, USA) to determine the number of viable cells and the percentage of viability was calculated as follows: […]
For orientation: Formazan colour is commonly taken as a measure of viable cells.

The subject of assay [3] is Caspase-9 (human). The assay is described as follows: Caspase-9 level ELISA in MCF-7. The method, then: To measure caspase-9 levels, DRG® Caspase-9 (human) ELISA (EIA-4860) kits were used. In brief, the breast cancer cell line (MCF-7) extracts were prepared after elevation of apoptosis. The extracts were suspended in lysis buffer, and incubated at room temperature for 60 min and then centrifuge for 15 min. The microwell strips were washed with 400 µl wash buffer, followed by addition of 100 µl of sample diluent in duplicate to all standard wells, 100 µl of sample diluent in duplicate to the blank wells, 50 µl of sample diluent to the sample, and 50 µl of each sample in duplicate to the sample wells. Then the detection antibody 50 µl was added to all wells and incubated for 2 h at room temperature. The diluted antirabbit-IgG-HRP (anti-rabbit-immunoglobulin G-horseradish peroxidase) 100 µl was added to all wells together with blank wells. TMB substrate solution 100 µl was added to all wells and incubated for 15 min. at room temperature. Finally, the enzyme reaction was stopped by adding 100 µl of the stop solution to all wells. The absorbance of each microwell was measured at 450 nm using a spectrophotometer. The absorbance of the samples and standard were recorded.
In general terms: An ELISA detects its analyte on a solid surface through an enzyme-linked reagent.

Converted amounts (≈) assume the structure as drawn.

For orientation: IC50 means the concentration that inhibits the measured activity by half. Read a low IC50 as greater potency in that assay. Turning to `O=C1O[C@H]([C@@H](O)CO)C(O)=C1O` [Ascorbic acid], half-maximal inhibition in assay [1] (IC50) required 18.7 ± 0.77 µg/mL (≈ 106 µM).
With `COc1cccc2c1C(=O)c1c(O)c3c(c(O)c1C2=O)C[C@@](O)(C(=O)CO)C[C@@H]3O[C@H]1C[C@H](N)[C@H](O)[C@H](C)O1` [Doxorubicin], half-maximal inhibition in assay [2] (IC50) required 7.75 ± 0.4 µg/mL (≈ 14.3 µM). The Caspase-9 level induction in assay [3] (MCF-7) is recorded as 8.67 folds. For the same molecule, the “Caspase-9 (Conc.)” value in assay [3] (breast human carcinoma cell line (MCF-7), control 2.986 ± 0.31) amounted to 25.84 ± 0.39 ng/mL.

(Values after paper PMC11603770, “Validating anti-inflammatory and cytotoxic properties of Fagonia cretica L. through metabolic, in vitro, and in silico profiling” (BMC Complementary Medicine and Therapies, 2024).)
